# Read-outs that look alike come from different tables or passages of the source. Marks after values point to notes of the source that are not given here.
# How the values were obtained:
# SK-OV-3 cells [1] = test: Cell Titer-Glo cytotoxicity assay, SK-OV-3; type: cell-based; details: Homo sapiens
# From the text: (§1) Five serial 1:2 dilutions were made with anhydrous DMSO at 100× the final concentration used in the assay.
# NCI-H460 cells [2] = test: Cell Titer-Glo cytotoxicity assay, NCI-H460; type: cell-based, human
# From the text: as §1
# SK-OV-3 cells [3] = test: Calcein AM cytotoxicity assay, SK-OV-3; type: cell-based; details: Homo sapiens
# From the text: as §1
# Du145 cells [4] = test: Calcein AM cytotoxicity assay, Du145; type: cell-based; details: Homo sapiens
# From the text: as §1
# NCI-H460 cells [5] = test: Calcein AM cytotoxicity assay, NCI-H460; type: cell-based; details: Homo sapiens
# From the text: as §1
# MCF7 cells [6] = test: Calcein AM cytotoxicity assay, MCF7; type: cell-based; details: Homo sapiens
# From the text: as §1
# [7] = tested on: NmuMG mouse mammary normal epithelial cells; test: Cell Titer-Glo cytotoxicity assay, NmuMG; type: cell-based; details: for IC50: Mus musculus, Epithelial cell, 72 h
# From the text: as §1
# MCF7 cells [8] = test: Cell Titer-Glo cytotoxicity assay, MCF7; type: cell-based, human; details: for IC50: Homo sapiens
# From the text: as §1
# NCI/ADR RES cells [9] = test: Calcein AM cytotoxicity assay, NCI/ADR-RES; type: cell-based; details: Homo sapiens, 72 h
# From the text: as §1
# Hep3B cells [10] = test: Calcein AM cytotoxicity assay, Hep3B; type: cell-based; details: Homo sapiens, 72 h
# From the text: as §1
# Hep3B cells [11] = test: Cell Titer-Glo cytotoxicity assay, Hep3B; type: cell-based; details: Homo sapiens, 72 h
# From the text: as §1
# HT-29 cells = test: MTT cytotoxicity assay, HT-29; type: cell-based; details: Homo sapiens
# From the text: The IC50 value for each library member represents at least twelve replicates of dose-response experiments conducted over five concentrations. […] In this assay, live cells were distinguished by the intracellular enzymatic activity that converts the cell-permeable molecule MTT to strongly colored formazan crystals, which are retained within live cells and absorb light at 570 nm.
# MTT Cytotoxicity Assay. HT-29 cell lines were maintained in RPMI medium 1640 supplemented with 10% (wt/vol) FBS and 1% penicillin-streptomycin (PS) (100 units/mL and 100 μg/mL). Cells were harvested by trypsinization using 0.25% trypsin and 0.1% EDTA and plated at a density of 2,000-5,000 cells per well of each 96-well microtiter plate. Cells were grown for 24 h at 37° C., with 5% CO2/95% air in a humidified incubator to allow cell attachment to occur before compound addition. Library members were stored at −20° C. under desiccating conditions before the assay. Library member stocks (1000×) were prepared in falcon tubes (BD Biosciences). Five dilutions were made with DMSO at 1000× the final concentration used in the assay. The 1000× stocks (3 μL) were diluted with complete culture medium (3 mL). Each plate contained twelve replicates of cells treated with 0.1% DMSO in complete cell culture medium that served as an individual negative control. Library member stocks (1×, 200 μL) were added to aspirated cells and replicated twelve times on each plate. Cells were incubated with the library members for 24 h before optical density reading. Test plates were removed from the incubator and washed once in sterile PBS to remove serum containing library members. Freshly-made 10×MTT solution in sterile PBS (5 mg/mL) was diluted 1:10 in serum-free culture medium and was sterilized using a 0.2 μm filter. Diluted MTT solution (1×, 50 μL) was added to each well and the plates were incubated in the dark for 2 h. Test plates were centrifuged at 1800×g for 5 min at 4° C. using a Beckman GPR centrifuge. MTT solution was removed by aspiration and 100 μL DMSO was added to each well to lyse cells and solubilize formazan crystals. Test plates were incubated in the dark at room temperature for 10 min. Plates were read for optical density at 570 nm.
# IC50 Calculations. For each library member, at least three dose-response experiments were conducted on separate plates. […] To calculate IC50, percent inhibitions were plotted as a function of log[concentration] and then fit to a four-parameter logistic model that allowed for a variable Hill slope by using XLFIT 4.1 (ID Business Solutions, Emeryville, Calif.).
# SF-268 cells [12] = test: Calcein AM cytotoxicity assay, SF-268; type: cell-based; details: Homo sapiens
# From the text: as §1
# Du145 cells [13] = test: Cell Titer-Glo cytotoxicity assay, Du145; type: cell-based; details: Homo sapiens
# From the text: as §1
# HCT-116 cells [14] = test: Calcein AM cytotoxicity assay, HCT-116; type: cell-based; details: Homo sapiens
# From the text: as §1
# human cancer cell lines = test: Cytotoxicity across the panel of human cancer cell lines (average, high-throughput assays); type: cell-based; details: for IC50: read-out: Cancerous Average IC50 / Average IC50 in Cancer Cell Lines
# From the text: as §1
# HCT-116 cells [15] = test: Cell Titer-Glo cytotoxicity assay, HCT-116; type: cell-based; details: Homo sapiens
# From the text: as §1
# NCI/ADR RES cells [16] = test: Cell Titer-Glo cytotoxicity assay, NCI/ADR-RES; type: cell-based, human; details: for IC50: Homo sapiens, NCI/ADR-RES, 72 h
# From the text: as §1
# [17] = tested on: NmuMG mouse mammary normal epithelial cells; test: Calcein AM cytotoxicity assay, NmuMG; type: cell-based; details: Epithelial cell, 72 h
# From the text: as §1
# SF-268 cells [18] = test: Cell Titer-Glo cytotoxicity assay, SF-268; type: cell-based; details: Homo sapiens
# From the text: as §1
# [19] = SK-OV-3, Cell Titer-Glo, 72 h, read-out: IC50
# [20] = Homo sapiens, NCI-H460, Cell Titer-Glo, 72 h, read-out: IC50
# [21] = SK-OV-3, Calcein AM, 72 h, read-out: IC50
# [22] = DU-145, Du145, Calcein AM, 72 h, read-out: IC50
# [23] = NCI-H460, Calcein AM, 72 h, read-out: IC50
# [24] = MCF7, Calcein AM, 72 h, read-out: IC50
# [25] = NmuMG, Cell Titer-Glo, read-out: IC50
# [26] = MCF7, Cell Titer-Glo, 72 h, read-out: IC50
# [27] = HT-29, MTT, 24 h, read-out: IC50
# [28] = SF-268, Calcein AM, 72 h, read-out: IC50
# [29] = DU-145, Du145, Cell Titer-Glo, 72 h, read-out: IC50
# [30] = HCT-116, Calcein AM, 72 h, read-out: IC50
# [31] = average across eight human cancer cell lines, MTT (HT-29) values excluded
# [32] = HCT-116, Cell Titer-Glo, 72 h, read-out: IC50
# [33] = NmuMG, Calcein AM, read-out: IC50
# [34] = SF-268, Cell Titer-Glo, 72 h, read-out: IC50
compound,measurement,setting,value
"CCCCc1ccc(N=C=S)cc1 [Compound 21, 1-butyl-4-isothiocyanatobenzene]",IC50,SK-OV-3 cells [1]; [19],31.4 µM
same,IC50,NCI-H460 cells [2]; [20],> 50 µM
same,IC50,"NCI-H460 cells [2]; NCI-H460, Cell Titer-Glo, 72 h","^fNon-inhibitory in Hep3B, NCI/ADR RES, NCI-H460"
same,IC50,SK-OV-3 cells [3]; [21],15.9 µM
same,IC50,Du145 cells [4]; [22],> 50 µM
same,IC50,NCI-H460 cells [5]; [23],> 50 µM
same,IC50,MCF7 cells [6]; [24],45.8 µM
same,IC50,[7]; [25],65.7 µM
same,IC50,MCF7 cells [8]; [26],45.4 µM
same,IC50,"NCI/ADR RES cells [9]; Calcein AM, read-out: IC50",> 50 µM
same,IC50,"Hep3B cells [10]; Calcein AM, read-out: IC50",> 50 µM
same,IC50,"Hep3B cells [11]; Cell Titer-Glo, read-out: IC50",> 50 µM
same,IC50,HT-29 cells; [27],> 50 µM
same,IC50,SF-268 cells [12]; [28],21.5 µM
same,IC50,Du145 cells [13]; [29],48 µM
same,IC50,HCT-116 cells [14]; [30],> 50 µM
same,Cancerous Average IC50 / Average IC50 in Cancer Cell Lines,human cancer cell lines; [31],35.25^f μM
same,IC50,human cancer cell lines; [31],35.2 µM
same,IC50,HCT-116 cells [15]; [32],19.4 µM
same,IC50,"NCI/ADR RES cells [16]; Cell Titer-Glo, read-out: IC50",> 50 µM
same,IC50,[17]; [33],71.9 µM
same,IC50,SF-268 cells [18]; [34],32.1 µM
"S=C=NCc1cccnc1 [Compound 22, 3-(isothiocyanatomethyl)pyridine]",IC50,"SK-OV-3 cells [1]; SK-OV-3, 72 h",2.21 µM
same,IC50,"NCI-H460 cells [2]; Homo sapiens, NCI-H460, 72 h",4.51 µM
same,IC50,"SK-OV-3 cells [3]; SK-OV-3, 72 h",2.6 µM
same,IC50,"Du145 cells [4]; DU-145, 72 h",< 1.88 µM
same,IC50,"NCI-H460 cells [5]; NCI-H460, 72 h",5.18 µM
same,IC50,"MCF7 cells [6]; MCF7, 72 h",2.31 µM
same,IC50,[7],26 ± 1.15 µM
same,fold less potent than L-sulforaphane,[7]; NmuMG cells,~4 fold
same,IC50,"MCF7 cells [8]; MCF7, 72 h",2.04 µM
same,IC50,NCI/ADR RES cells [9],2.27 µM
same,IC50,Hep3B cells [10],3.64 µM
same,IC50,Hep3B cells [11],3 µM
same,IC50,"HT-29 cells; HT-29, 24 h",21.3 µM
same,IC50,"SF-268 cells [12]; SF-268, 72 h",2.68 µM
same,IC50,"Du145 cells [13]; DU-145, 72 h",2.91 µM
same,IC50,"HCT-116 cells [14]; HCT-116, 72 h",1.26 µM
same,IC50,human cancer cell lines; Homo sapiens,2.54 µM
same,fold increase in effectiveness relative to L-sulforaphane,human cancer cell lines; potency in NCI/ADR RES and selectivity over NmuMG taken together,~30 fold
same,IC50,"HCT-116 cells [15]; HCT-116, 72 h",2.04 ± 0.21 µM
same,IC50,NCI/ADR RES cells [16],1.18 ± 0.06 µM
same,fold more potent than L-sulforaphane,NCI/ADR RES cells [16]; NCI/ADR RES cells,~7.5 fold
same,fold increase in potency versus 23,"NCI/ADR RES cells [16]; NCI/ADR RES cells, phenyl replaced by 3-pyridine",≤ 10 fold
same,IC50,[17],< 12.5 µM
same,IC50,"SF-268 cells [18]; SF-268, 72 h",2.46 µM
"S=C=NCc1ccccc1 [Compound 23, 1-(isothiocyanatomethyl)benzene]",IC50,SK-OV-3 cells [1]; [19],8.86 µM
same,IC50,NCI-H460 cells [2]; [20],14.5 µM
same,IC50,SK-OV-3 cells [3]; [21],7.18 µM
same,IC50,Du145 cells [4]; [22],5.37 µM
same,IC50,NCI-H460 cells [5]; [23],22.9 µM
same,IC50,MCF7 cells [6]; [24],16 µM
same,IC50,[7]; [25],15.4 µM
same,IC50,MCF7 cells [8]; [26],10.6 µM
same,IC50,"NCI/ADR RES cells [9]; Calcein AM, read-out: IC50",15.5 µM
same,IC50,"Hep3B cells [10]; Calcein AM, read-out: IC50",22.5 µM
same,IC50,"Hep3B cells [11]; Cell Titer-Glo, read-out: IC50",9.7 ± 0.37 µM
same,IC50,HT-29 cells; [27],31.4 µM
same,IC50,SF-268 cells [12]; [28],11.5 µM
same,IC50,Du145 cells [13]; [29],4.64 µM
same,IC50,HCT-116 cells [14]; [30],11.5 µM
same,fold increase in potency versus fully-saturated 18,human cancer cell lines; average IC50 compared,> 3 fold
same,IC50,human cancer cell lines; [31],9.47 µM
same,IC50,HCT-116 cells [15]; [32],3.19 µM
same,IC50,"NCI/ADR RES cells [16]; Cell Titer-Glo, read-out: IC50",11.5 ± 0.77 µM
same,IC50,[17]; [33],< 12.5 µM
same,IC50,SF-268 cells [18]; [34],8.27 µM
COc1cccc(CN=C=S)c1OC [Compound 27],IC50,SK-OV-3 cells [1]; [19],5.47 µM
same,IC50,NCI-H460 cells [2]; [20],16.1 µM
same,IC50,SK-OV-3 cells [3]; [21],2.55 µM
same,IC50,Du145 cells [4]; [22],2.46 µM
same,IC50,NCI-H460 cells [5]; [23],15.8 µM
same,IC50,MCF7 cells [6]; [24],5.81 µM
same,IC50,[7]; [25],3.78 µM
same,IC50,MCF7 cells [8]; [26],3.22 µM
same,IC50,"NCI/ADR RES cells [9]; Calcein AM, read-out: IC50",5.61 µM
same,IC50,"Hep3B cells [10]; Calcein AM, read-out: IC50",1.37 µM
same,IC50,"Hep3B cells [11]; Cell Titer-Glo, read-out: IC50",4.87 µM
same,IC50,SF-268 cells [12]; [28],4.26 µM
same,IC50,Du145 cells [13]; [29],8.24 µM
same,IC50,HCT-116 cells [14]; [30],< 1.88 µM
same,IC50,HCT-116 cells [15]; [32],6.72 µM
same,IC50,"NCI/ADR RES cells [16]; Cell Titer-Glo, read-out: IC50",20.8 µM
same,IC50,[17]; [33],5.59 µM
same,IC50,SF-268 cells [18]; [34],3.21 µM
"S=C=N[C@@H]1CCCc2ccccc21 [Compound 32, (R)-1-isothiocyanato-1,2,3,4-tetrahydronaphthalene]",IC50,SK-OV-3 cells [1]; [19],7.74 µM
same,IC50,NCI-H460 cells [2]; [20],13.3 µM
same,IC50,SK-OV-3 cells [3]; [21],5.18 µM
same,IC50,Du145 cells [4]; [22],5.27 µM
same,IC50,NCI-H460 cells [5]; [23],18.7 µM
same,IC50,MCF7 cells [6]; [24],3.88 µM
same,IC50,[7]; [25],17 µM
same,IC50,MCF7 cells [8]; [26],7.83 µM
same,IC50,"Hep3B cells [10]; Calcein AM, read-out: IC50",< 3.13 µM
same,IC50,"Hep3B cells [11]; Cell Titer-Glo, read-out: IC50",3.59 ± 0.16 µM
same,IC50,HT-29 cells; [27],20.4 µM
same,IC50,SF-268 cells [12]; [28],5.75 µM
same,IC50,Du145 cells [13]; [29],8.66 µM
same,IC50,HCT-116 cells [14]; [30],12.5 µM
same,Cancerous Average IC50 / Average IC50 in Cancer Cell Lines,human cancer cell lines; [31],8.27^g μM
same,IC50,human cancer cell lines; [31],8.27 µM
same,fold more potent than 23,"human cancer cell lines; in general, across cell lines",~1.2 fold
same,fold more potent than the S-enantiomer 31,"human cancer cell lines; in general, across cell lines",approximately 2.0 fold
same,IC50,HCT-116 cells [15]; [32],9.05 µM
same,IC50,[17]; [33],17.2 µM
same,IC50,SF-268 cells [18]; [34],7.73 µM
C[S@+]([O-])CCCCN=C=S [D-sulforaphane],% bioactive (relative to L-sulforaphane),"NCI-H460 cells [2]; NCI-H460, inferred from racemate 13 versus 2",14%
same,% bioactive (relative to L-sulforaphane),"MCF7 cells [8]; MCF7, inferred from racemate 13 versus 2",0%
same,% bioactive (relative to L-sulforaphane),"NCI/ADR RES cells [16]; NCI/ADR RES, inferred from racemate 13 versus 2",9%
